Assay results reported in patent US7939563B2, “Remedy for hypertension” (Kao Corporation, priority 2001, dated 2011).

Columns and labels:
[1] = tested on: spontaneously hypertensive male rats (SHR); assay: Measurement of an antihypertensive effect: oral administration, systolic blood pressure of the caudal artery; type: in vivo, rat; settings: 50 mg/Kg oral
Method: After each of 15 week-old, spontaneously hypertensive male rats (“SHR”) was accustomed to sphygmomanometric operation by preliminarily measuring its blood pressure for 7 successive days using a commercially available noninvasive sphygmomanometer for rats (manufactured by Softlon Co., Ltd.), the evaluation test was started. The rats were all bred under conditions (in a breeding room in a rat region) at a room temperature of 25±1° C., humidity of 55±10% RH and illumination for 12 hours (from 7:00 am to 7:00 pm).
In the test plot (Comparative Example), a solution of ferulic acid (50 mg/kg as a dose) in physiological saline was employed. In Test plot 2, Test plot 3, Test plot 4, Test plot 5 and Test plot 6, a solution of chlorogenic acid (50 mg/kg as a dosage) in physiological saline, oryzanol (50 mg/kg as a dosage), curcumin (50 mg/kg as a dosage), phenylethyl caffeate (50 mg/kg as a dosage) and rosmarinic acid (50 mg/kg as a dosage) were used, respectively. In each test plot, physiological saline was employed as a control. Each of the samples was orally administered.
SHRs were fasted overnight and divided into groups, each consisting of 5 rats. Systolic blood pressures of the caudal artery were measured prior to administration, and several times during 30 minutes to 24 hours after administration
The test results thus obtained were expressed by the mean value (%) and […] (SE) of the changing ratio (%) in systolic blood pressure.
A lowering ratio of the systolic blood pressure measured during 30 minutes to 24 hours each after administration relative to the systolic blood pressure prior to administration is shown in Table 1.

[2] = Blood levels of chlorogenic acid, caffeic acid and ferulic acid after oral chlorogenic acid in SHR; type: in vivo, rat; set-up: unit not given here; settings: 200 mg/kg chlorogenic acid oral once
Method: To the SHR, 200 mg/kg of chlorogenic acid was orally administered once.
SHRs were fasted overnight and then divided into groups, each consisting of 5 rats.

[3] = tested on: spontaneously hypertensive male rats (SHR); assay: Identification of an antihypertensive component: intravenous administration, systolic blood pressure of the carotid artery; type: in vivo, rat; settings: anesthetized 15 week-old SHR, 5 μg mol/kg in physiological saline, intravenous via femoral vein catheter
Method: Its electrocardiograph was recorded by an electrocardiogram. A sample was injected to the femoral vein through a catheter. After the rats were accustomed sufficiently to the sphygmomanometric operation, the evaluation test was started. The rats were all bred under conditions (in a breeding room in a rat region) at a room temperature of 25±1° C., humidity of 55±10% RH and illumination for 12 hours (from 7:00 am to 7:00 pm). In the control plot, physiological saline was employed. […] Through a catheter, the sample was intravenously administered and while administration, systolic blood pressures of the carotid artery were measured with the passage of time.

[4] = Blood levels after 6 weeks of a beverage mixture containing an extract of raw coffee beans, liquid chromatography; type: in vivo; settings: human, plasma, oral; read-out: blood level 24 hours after administration of chlorogenic acid
Method: The blood levels of chlorogenic acid, caffeic acid and ferulic acid were measured using liquid chromatography.

[5] = Blood level time course of ferulic acid after administration; type: in vivo
[6] = time 0 (prior to administration)

Row | Compound | changing ratio in systolic blood pressure (mean) [1, 6] | changing ratio in systolic blood pressure (mean) ([1]; time 6 after administration) | changing ratio in systolic blood pressure (mean) ([1]; time 12 after administration) | changing ratio in systolic blood pressure (mean) ([1]; time 24 after administration) | blood level after the administration of chlorogenic acid [2, 6] | blood level after the administration of chlorogenic acid ([2]; time 3) | blood level after the administration of chlorogenic acid ([2]; time 6) | blood level after the administration of chlorogenic acid ([2]; time 9) | blood level after the administration of chlorogenic acid ([2]; time 12) | blood level after the administration of chlorogenic acid ([2]; time 24) | fluctuation in systolic blood pressure of the carotid artery [3] | also measured
1 | O=C(/C=C/c1ccc(O)c(O)c1)O[C@H]1[C@H](O)C[C@](O)(C(=O)O)C[C@H]1O [4-chlorogenic acid, 4-caffeoylquinic acid] | 0% | −8.5% | −9.1% | −11.0% | – | – | – | – | – | – | – | –
2 | O=C(/C=C/c1ccc(O)c(O)c1)O[C@@H]1C[C@](O)(C(=O)O)C[C@@H](O)[C@H]1O [5-chlorogenic acid, 5-caffeoylquinic acid] | – | – | – | – | 0 | 0 | 0 | 0 | 0 | 0 | – | –
3 | O=C(O)/C=C/c1ccc(O)c(O)c1 [caffeic acid] | – | – | – | – | 0 | 0.07 | 0.179 | 0.166 | 0.05 | 0 | Fluctuations in the blood pressure was not recognized | concentration at 24 h [4]: 95.4 ng/mL
4 | COc1cc(/C=C/C(=O)CC(=O)/C=C/c2ccc(O)c(OC)c2)ccc1O [curcumin] | 0% | −15.2% | −3.5% | −5.3% | – | – | – | – | – | – | – | –
5 | COc1cc(/C=C/C(=O)O)ccc1O [ferulic acid] | 0% | −3.2% | – | – | 0 | 0.074 | 0.154 | 0.174 | 0.145 | 0 | lowering in the blood pressure was recognized | time after which metabolism and excretion are completed [5]: about 4 hours; time at which the blood level reaches the maximum [5]: about 2 hours; concentration at 24 h [4]: 104 ng/mL; changing ratio in systolic blood pressure (mean) ([1]; time 0.5 after administration): −9.5%; changing ratio in systolic blood pressure (mean) ([1]; time 1 after administration): −10.3%; changing ratio in systolic blood pressure (mean) ([1]; time 2 after administration): −6.8%; changing ratio in systolic blood pressure (mean) ([1]; time 4 after administration): −7.9%
6 | O=C(/C=C/c1ccc(O)c(O)c1)OCCc1ccccc1 [phenylethyl caffeic acid, phenylethyl caffeate] | 0% | −13.7% | −1.3% | −0.7% | – | – | – | – | – | – | – | –
7 | O=C(O)[C@]1(O)C[C@@H](O)[C@@H](O)[C@H](O)C1 [quinic acid] | – | – | – | – | – | – | – | – | – | – | Fluctuations in the blood pressure was not recognized | –
8 | O=C(/C=C/c1ccc(O)c(O)c1)O[C@H](Cc1ccc(O)c(O)c1)C(=O)O [rosemaric acid, rosmarinic acid] | 0% | −6.4% | 0.9% | 2.2% | – | – | – | – | – | – | – | –
9 | oryzanol | 0% | – | – | – | – | – | – | – | – | – | – | changing ratio in systolic blood pressure (mean) ([1]; time 1 after administration): −15.2%; changing ratio in systolic blood pressure (mean) ([1]; time 2 after administration): −12.8%; changing ratio in systolic blood pressure (mean) ([1]; time 4 after administration): −13.8%
